Several values for one entry are separate records, joined by “and”; a condition that tells them apart may be missing. Equal entries are not always repeated.
Tested on: CTL cells (CD45^+CD8^+ T cells) in tumor-infiltrating lymphocytes
Experiment: Example 2: flow cytometry, percentage of CTL cells in TILs
Type: in vivo, Mus musculus
Description: Mice were sacrificed by CO2 euthanasia at the end of the study duration, and the connective tissue around tumor was resected. The tumor samples were then weighed and cut equally into three sections if the tumor weight over 400 mg. The tumor tissue was prepared for the isolation of tumor-infiltrating lymphocytes (TILs). The rest of one section was fixed in 10% formaldehyde and embedded in paraffin; the other was stored at a temperature below −70° C.
The tumor samples were dissected into smaller fragments using scalpels and then digested with a cocktail of collagenase, DNase I, and Hyaluronidase (Collagenase #C5138, DNase I #D5025, Hyaluronidase #H6254, SigmaAldrich) for at least 2 hours.
Cells were stained with the fluorescently conjugated surface antibodies and incubated for 30 minutes at 4° C., and then resuspended in staining buffer for flow cytometric analysis. Flow cytometry was done using a Navios EX Flow Cytometer (Beckman Coulter). Data were analyzed using the Kaluza Analysis Software (Beckman Coulter).

## C[C@H](OP(=O)(N1CC1)N1CC1)c1ccc([N+](=O)[O-])c(Oc2cccc(C(=O)N(C)C)c2)c1 [OBI-3424, (S)-1-(3-(3-N,N-dimethylaminocarbonyl)phenoxyl-4-mtrophenyl)-1-ethyl-N,N′-bis(ethylene)phosphoramidate]
Example 2, mean±SEM, OBI-3424 1 mg/kg, alone (G3) or with anti-hPD-1 (G6), vehicle 15.53±5.66%
  CTL cells (CD45^+CD8^+ T cells) in TILs: 33.50±3.38%
G2: 0.3 mg/kg, group mean
  CD25^+ CTL cells (CD45^+ CD8^+CD25^+) Cell count (×10^5): 2.93 ×10^5
  CD25^+ CTL cells (CD45^+CD8^+ CD25^+) CTL Gated %: 5.60%
  CD25^+ CTL cells (CD45^+CD8^+ CD25^+) Total %: 1.33%
  CD69^+ CTL cells (CD45^+ CD8^+CD69^+) CTL Gated %: 69.71%
  CD69^+ CTL cells (CD45^+ CD8^+CD69^+) Cell count (×10^5): 40.97 ×10^5
  CD69^+ CTL cells (CD45^+ CD8^+CD69^+) Total %: 20.23%
  CTL cells (CD45^+CD8^+) CD45^+ Gated %: 60.54%
  CTL cells (CD45^+CD8^+) Cell count (×10^5): 55.19 ×10^5
  CTL cells (CD45^+CD8^+) Total %: 26.12%
  Granzyme B^+ CTL cells (CD45^+ CD8^+GrB+) CTL Gated %: 90.76%
  Granzyme B^+ CTL cells (CD45^+ CD8^+GrB+) Cell count (×10^5): 61.54 ×10^5
  Granzyme B^+ CTL cells (CD45^+ CD8^+GrB+) Total %: 26.31%
  IFN-γ^+ CTL cells (CD45^+ CD8^+ IFN-γ^+) CTL Gated %: 0.89%
  IFN-γ^+ CTL cells (CD45^+ CD8^+ IFN-γ^+) Cell count (×10^5): 0.47 ×10^5
  IFN-γ^+ CTL cells (CD45^+ CD8^+ IFN-γ^+) Total %: 0.20%
  PD-1^+ CTL cells (CD45^+CD8^+ PD-1^+) CTL Gated %: 75.96%
  PD-1^+ CTL cells (CD45^+CD8^+ PD-1^+) Cell count (×10^5): 42.52 ×10^5
  PD-1^+ CTL cells (CD45^+CD8^+ PD-1^+) Total %: 18.42%
G2: 0.3 mg/kg, individual mice
  CD25^+ CTL cells (CD45^+ CD8^+CD25^+) Cell count (×10^5): 1.91 ×10^5 and 3.89 ×10^5 and 7.72 ×10^5 and 0.35 ×10^5 and 3.13 ×10^5 and 0.58 ×10^5
  CD25^+ CTL cells (CD45^+CD8^+ CD25^+) CTL Gated %: 11.79% and 5.81% and 3.87% and 3.93% and 4.86% and 3.31%
  CD25^+ CTL cells (CD45^+CD8^+ CD25^+) Total %: 0.98% and 1.90% and 1.43% and 1.62% and 1.27% and 0.80%
  CD69^+ CTL cells (CD45^+ CD8^+CD69^+) CTL Gated %: 62.46% and 73.01% and 61.79% and 85.14% and 68.69% and 67.19%
  CD69^+ CTL cells (CD45^+ CD8^+CD69^+) Cell count (×10^5): 10.13 ×10^5 and 48.79 ×10^5 and 123.34 ×10^5 and 7.53 ×10^5 and 44.17 ×10^5 and 11.85 ×10^5
  CD69^+ CTL cells (CD45^+ CD8^+CD69^+) Total %: 5.21% and 23.86% and 22.84% and 35.19% and 17.92% and 16.34%
  CTL cells (CD45^+CD8^+) CD45^+ Gated %: 43.92% and 72.25% and 73.64% and 66.97% and 60.34% and 46.12%
  CTL cells (CD45^+CD8^+) Cell count (×10^5): 15.97 ×10^5 and 54.79 ×10^5 and 171.72 ×10^5 and 9.75 ×10^5 and 66.26 ×10^5 and 12.67 ×10^5
  CTL cells (CD45^+CD8^+) Total %: 8.21% and 26.79% and 31.80% and 45.54% and 26.88% and 17.47%
  Granzyme B^+ CTL cells (CD45^+ CD8^+GrB+) CTL Gated %: 66.16% and 97.44% and 95.50% and 85.88% and 99.84% and 99.74%
  Granzyme B^+ CTL cells (CD45^+ CD8^+GrB+) Cell count (×10^5): 11.61 ×10^5 and 69.08 ×10^5 and 196.18 ×10^5 and 6.59 ×10^5 and 69.09 ×10^5 and 16.66 ×10^5
  Granzyme B^+ CTL cells (CD45^+ CD8^+GrB+) Total %: 5.97% and 33.78% and 36.33% and 30.78% and 28.03% and 22.98%
  IFN-γ^+ CTL cells (CD45^+ CD8^+ IFN-γ^+) CTL Gated %: 2.04% and 0.66% and 0.54% and 0.36% and 1.10% and 0.64%
  IFN-γ^+ CTL cells (CD45^+ CD8^+ IFN-γ^+) Cell count (×10^5): 0.35 ×10^5 and 0.47 ×10^5 and 1.08 ×10^5 and 0.03 ×10^5 and 0.76 ×10^5 and 0.11 ×10^5
  IFN-γ^+ CTL cells (CD45^+ CD8^+ IFN-γ^+) Total %: 0.18% and 0.23% and 0.20% and 0.13% and 0.31% and 0.15%
  PD-1^+ CTL cells (CD45^+CD8^+ PD-1^+) CTL Gated %: 95.86% and 68.60% and 72.47% and 49.67% and 96.18% and 73.00%
  PD-1^+ CTL cells (CD45^+CD8^+ PD-1^+) Cell count (×10^5): 15.31 ×10^5 and 37.59 ×10^5 and 124.42 ×10^5 and 4.84 ×10^5 and 63.74 ×10^5 and 9.24 ×10^5
  PD-1^+ CTL cells (CD45^+CD8^+ PD-1^+) Total %: 7.87% and 18.38% and 23.04% and 22.62% and 25.86% and 12.75%
G3: 1 mg/kg, group mean
  CD25^+ CTL cells (CD45^+ CD8^+CD25^+) Cell count (×10^5): 1.33 ×10^5
  CD25^+ CTL cells (CD45^+CD8^+ CD25^+) CTL Gated %: 5.25%
  CD25^+ CTL cells (CD45^+CD8^+ CD25^+) Total %: 1.71%
  CD69^+ CTL cells (CD45^+ CD8^+CD69^+) CTL Gated %: 71.92%
  CD69^+ CTL cells (CD45^+ CD8^+CD69^+) Cell count (×10^5): 18.65 ×10^5
  CD69^+ CTL cells (CD45^+ CD8^+CD69^+) Total %: 25.02%
  CTL cells (CD45^+CD8^+) CD45^+ Gated %: 55.81%
  CTL cells (CD45^+CD8^+) Cell count (×10^5): 25.42 ×10^5
  CTL cells (CD45^+CD8^+) Total %: 33.50%
  Granzyme B^+ CTL cells (CD45^+ CD8^+GrB+) CTL Gated %: 88.17%
  Granzyme B^+ CTL cells (CD45^+ CD8^+GrB+) Cell count (×10^5): 23.13 ×10^5
  Granzyme B^+ CTL cells (CD45^+ CD8^+GrB+) Total %: 30.40%
  IFN-γ^+ CTL cells (CD45^+ CD8^+ IFN-γ^+) CTL Gated %: 0.63%
